# Reference: the RepoRT retention time repository (doi:10.1016/j.jhazmat.2019.121712)
# Assay: Thermo Scientific Acclaim RSLC 120 C18, 100 × 2.1 mm, 2.2 µm, 30 °C; A: 90% water + 10% methanol + 0.01% formic acid + 5 mM ammonium formate; B: methanol + 0.01% formic acid + 5 mM ammonium formate; gradient (min/%B) 0.1/1 3/39 14/99.9 16/99.9
# Details: stereoisomer not certain
row,Compound,LC retention time [min]
1,CC[N+]([O-])(CC)CC(=O)Nc1c(C)cccc1C,5.34
2,CC12CCC3C(CC=C4CC(O)CCC43C)C1CCC2=O (stereo not drawn),10.2
3,CNC(=O)Oc1ccccc1C(C)C,8.12
4,CC(C)=CCN1CCC2(C)c3cc(O)ccc3CC1C2C (stereo not drawn),5.46
5,CCS(=O)Cc1ccccc1OC(=O)NC (stereo not drawn),4.7
6,CN(C)P(=O)(OP(=O)(N(C)C)N(C)C)N(C)C,5.36
7,O=S(=O)(O)c1ccc2ccccc2c1,5.44
8,COc1ccc(OC)c(CC(C)N)c1 (stereo not drawn),4.78
9,COC(=O)NS(=O)(=O)c1ccc(N)cc1,3.41
10,CCOP(=O)(SC(C)CC)SC(C)CC (stereo not drawn),11.5
11,C=CCC1(C(C)C#CCC)C(=O)NC(=O)N(C)C1=O (stereo not drawn),9.09
12,COc1ccc2[nH]cc(CCN(C(C)C)C(C)C)c2c1,4.81
13,CCOP(=S)(OCC)SCCS(=O)CC (stereo not drawn),7.86
14,O=C(O)c1cccc(Oc2ccccc2)c1,9.38
15,Nc1ncn[nH]1,1.44
16,CC(C)(C)NCC(O)COc1cccc2c1CCCC2=O (stereo not drawn),4.84
17,Cc1cc(C)nc(NC(=O)NS(=O)(=O)c2ccccc2C(=O)OC2COC2)n1,6.52
18,CC(C)(N)Cc1ccccc1,4.64
19,O=c1[nH]c2c(c(=O)n1C1CCCCC1)CCC2,8.27
20,CN1CCCCC1Cn1cc(C(=O)C2C(C)(C)C2(C)C)c2ccccc21 (stereo not drawn),8.81
21,CCCCCn1cc(C(=O)C23CC4CC(CC(C4)C2)C3)c2ccccc21,13.7
22,COC(=O)NC(=S)Nc1ccccc1NC(=S)NC(=O)OC,6.93
23,CCOc1cc(OP(=S)(OC)OC)nc(CC)n1,11
24,NN1CC(=O)N2C(Cc3c([nH]c4ccccc34)C2c2ccc3c(c2)OCO3)C1=O (stereo not drawn),7.84
25,CC#CC1(O)CCC2C3CCC4=CC(=O)CCC4=C3C(c3ccc(N(C)C)cc3)CC21C (stereo not drawn),11.1
26,CCCc1ccc(C(=O)c2cn(CCC)c3ccccc23)c2ccccc12,12.7
27,NCC(O)c1cccc(O)c1 (stereo not drawn),1.81

row,Compound,LC retention time [min]
1,c1ccc(C(c2ccccc2)C2CCCCN2)cc1 (stereo not drawn),6.3
2,CC(COc1ccc(Oc2ccccc2)cc1)Oc1ccccn1 (stereo not drawn),12.6
3,CCCCCC(=O)c1ccc(O)cc1O,10.4
4,COc1ccc2c3c1OC1C(OC(C)=O)=CCC4C(C2)N(C)CCC314 (stereo not drawn),4.47
5,CN1CCC(N(Cc2ccccc2)c2ccccc2)CC1,7.77
6,OC(CCN1CCCC1)(c1ccccc1)C1CCCCC1 (stereo not drawn),7.8
7,COP(=S)(OC)Oc1ccc(SC)c(C)c1,11
8,Cc1cc(C2CC2)nc(Nc2ccccc2)n1,11
9,CC(=O)CC(c1ccccc1)c1c(O)c2ccccc2oc1=O (stereo not drawn),9.08
10,Cn1c(=O)c2c(ncn2C)n(C)c1=O,4.23
11,CN(C)C(CSS(=O)(=O)c1ccccc1)CSS(=O)(=O)c1ccccc1,9.6
12,O=C1N(CCN2CCCCC2)C(=O)C(c2ccccc2)(N2CCCCC2)C(=O)N1CCN1CCCCC1,7.64
13,COc1ccc(CCN)cc1OC,3.53
14,CCS(=O)(=O)Cc1ccccc1OC(=O)NC,4.63
15,CON=C(C(=O)OC)c1ccccc1COc1ccccc1C,10.8
16,CCN(CC)C(=O)c1cccc(C)c1,8.2
17,CC(C)N(CCC(C(N)=O)(c1ccccc1)c1ccccn1)C(C)C (stereo not drawn),4.74
18,CC(C(O)c1ccccc1)N(C)C (stereo not drawn),3.73
19,CC1NCCOC1c1ccccc1 (stereo not drawn),4.14
20,Cn1c([N+](=O)[O-])cnc1COC(N)=O,3.55
21,CC(N)C12CC3CC(CC(C3)C1)C2 (stereo not drawn),6.71
22,NC(N)=NCC1COc2ccccc2O1 (stereo not drawn),4.57
23,CN1CCN(CCCN2c3ccccc3Sc3ccccc32)CC1,8.8
24,CC(C)(C)NCC(O)c1ccc(O)c(NC(N)=O)c1 (stereo not drawn),2.89
25,Nc1nc(N)nc(NC2CC2)n1,2.78
26,CN1CCN(CC(=O)N2c3ccccc3C(=O)Nc3cccnc32)CC1,4.11
27,COc1cccc2c(C(=O)NC3C4(C)CCC(C4)C3(C)C)cn(CCN3CCOCC3)c12 (stereo not drawn),11.7

row,Compound,LC retention time [min]
1,COc1nn(CSP(=S)(OC)OC)c(=O)s1,8.7
2,CN1CCCCC1Cn1cc(C(=O)c2cccc3ccccc23)c2ccccc21 (stereo not drawn),8.09
3,CCOC(=O)CSc1nc(C(C)(C)C)nn1C(=O)N(C)C,6.38
4,CC(Cc1ccccc1)NCCC(c1ccccc1)c1ccccc1 (stereo not drawn),8.89
5,CC(=O)OC1C=CC2C3Cc4ccc(O)c5c4C2(CCN3C)C1O5 (stereo not drawn),3.75
6,CC(C)NC(=O)c1ccccc1O,7.14
7,Nc1ccc([N+](=O)[O-])cc1C(=O)c1ccccc1,8.99
8,CN(C)C(=O)C(c1ccccc1)c1ccccc1,8.57
9,CN(C)CC1CCCCC1(O)c1cccc(O)c1 (stereo not drawn),4.06
10,COP(=O)(OC)OC(C)=CC(=O)N(C)C,4.5
11,CNC(=O)Oc1cc(C)cc(C)c1C,8.4
12,CNC(=O)Oc1cc(C)c(SC)c(C)c1,9.34
13,O=C1CN=C(c2ccccc2)c2c(sc3c2CCCC3)N1,9.49
14,CNC(=O)N(C)c1nc2ccccc2s1,8.26
15,CN=CNc1ccc(C)cc1C,4.44
16,CCC(CC)COC(C(=O)OCCN(C)C)(c1ccccc1)c1ccccc1,11.6
17,COC(=O)c1ccccc1S(=O)(=O)NC(=O)N(C)c1nc(C)nc(OC)n1,7.94
18,CC[N+]1(C)C2CC(OC(=O)C(CO)c3ccccc3)CC1C1OC12 (stereo not drawn),3.87
19,CCCC(C)(COC(N)=O)COC(N)=O,5.94
20,N#CC1CCCN1C(=O)CNC12CC3CC(CC(O)(C3)C1)C2 (stereo not drawn),3.26
21,COP(N)(=O)SC (stereo not drawn),2.76
22,CNC(=O)C=C(C)OP(=O)(OC)OC,4.36
23,CCOC(=O)C(SP(=S)(OC)OC)c1ccccc1 (stereo not drawn),10.7
24,COc1ccc(-c2ccccc2)cc1NNC(=O)OC(C)C,9.87
25,CN(C)C(=O)SCCCCOc1ccccc1,10.7

# Continued, values first:
row,LC retention time [min],Compound
1,6.68,CC(C)NCC(O)COc1ccc(CCOCC2CC2)cc1 (stereo not drawn)
2,6.76,Cc1cc2n[nH]nc2cc1C
3,9.01,CC(C)(C)NCC(O)COc1ccccc1C1CCCC1 (stereo not drawn)
4,2.43,Nc1ncnc2nc[nH]c12
5,6.24,CCCOc1ccc(C(=O)CCN2CCCCC2)cc1
6,8.54,CN(C)CC(CN1c2ccccc2Sc2ccccc21)N(C)C (stereo not drawn)
7,7.14,CCCc1nn(C)c2c(=O)[nH]c(-c3cc(C(=O)CN4CCCCC4)ccc3OCC)nc12
8,2.8,C=CC(=O)NC(C)(C)CS(=O)(=O)O
9,7.95,O=C(OC1CN2CCC1CC2)N1CCc2ccccc2C1c1ccccc1 (stereo not drawn)
10,5.66,Cc1ccccc1N1CCN(CCc2nnc3n2CCCC3)CC1
11,7.52,CC(CN(C)C)CN1c2ccccc2Sc2ccc(C#N)cc21 (stereo not drawn)
12,12.9,CC(C)c1cc(Oc2ccccc2)cc(C(C)C)c1NC(=S)NC(C)(C)C
13,6.23,COc1cc(NS(=O)(=O)c2ccc(NC(C)=O)cc2)nc(OC)n1
14,7.81,CCCNCC(O)COc1ccccc1C(=O)CCc1ccccc1 (stereo not drawn)
15,7.89,CCc1cccc(C)c1N1C(=O)COCC1C (stereo not drawn)
16,13.2,Cc1nn(C)c(Oc2ccccc2)c1C=NOCc1ccc(C(=O)OC(C)(C)C)cc1
17,3.88,CCN1CCCC1CNC(=O)c1cc(S(=O)(=O)CC)c(N)cc1OC (stereo not drawn)
18,7.34,CCc1cccc(C)c1N(C(=O)CS(=O)(=O)O)C(C)COC (stereo not drawn)
19,4.66,O=C(O)c1ccccc1C(=O)Nc1ccc(S(=O)(=O)Nc2nccs2)cc1
20,7.86,Cc1cc(C)cc(OCC2CNC(=O)O2)c1 (stereo not drawn)

row,LC retention time [min],Compound
1,6.82,c1ccc(C(CCN2CCCCC2)c2ccccc2)cc1
2,6.13,CC=CC(=O)N(CC)C(CC)C(=O)N(C)C (stereo not drawn)
3,9.19,CCN(CC)CCOC(=O)C(c1ccccc1)C1CCCCC1 (stereo not drawn)
4,6.27,CCOc1ccc(NC(=O)CC(C)O)cc1 (stereo not drawn)
5,3.95,Cc1ccnc(NS(=O)(=O)c2ccc(N)cc2)n1
6,5.44,COC(=O)c1ccccc1C(=O)c1ccc(OCCN2CCCCC2)cc1
7,8.17,CNc1nc(NC(C)C)nc(SC)n1
8,8.27,Cc1cc(C)n(-c2nc3ccccc3[nH]2)n1
9,4.44,COc1nccnc1NS(=O)(=O)c1ccc(N)cc1
10,3.78,O=C(Nc1cccc(C2=NCCN2)c1)Nc1cccc(C2=NCCN2)c1
11,6.03,CCN(Cc1ccncc1)C(=O)C(CO)c1ccccc1 (stereo not drawn)
12,4.98,Cc1nccn1CC1CCc2c(c3ccccc3n2C)C1=O (stereo not drawn)
13,6.79,CCN(CCCCOC(=O)c1ccc(OC)c(OC)c1)C(C)Cc1ccc(OC)cc1 (stereo not drawn)
14,4.13,Nc1ccc(S(=O)(=O)c2ccc(N)cc2)cc1
15,4.11,CC(=O)Nc1ccc(S(=O)(=O)Nc2ncccn2)cc1
16,4.63,Cc1cc(=O)n(-c2ccccc2)n1C
17,10.9,CN(C(=O)CN(CCO)CC(=O)N(C)C(C)(C)Cc1ccccc1)C(C)(C)Cc1ccccc1
18,6.58,CC(C)(C)NCC(O)COc1ccc(NC(=O)NC2CCCCC2)cc1 (stereo not drawn)
19,13.2,CCCC(NC(C)C(=O)N1C(C(=O)O)CC2CCCCC21)C(=O)OCC (stereo not drawn)
